From patent US20070128217A1 (priority 2003, published 2007)

Columns and labels:
[1] = tested on: control sera (pooled serum of ten healthy LUMC hospital workers; commercial negative donor pooled serum from the Dutch bloodbank); assay type: binding, human; design: Binding of Control serum LUMC to linear peptides / Binding of Control serum Blood-bank to linear peptides / Binding of Control serum LUMC to looped peptides / Binding of Control Serum Blood-Bank to Looped peptides / Binding of Control serum LUMC to linear peptides of the protein M of SARS-CoV Urbani / Binding of Control serum Blood-bank to linear peptides of the protein M of SARS-CoV Urbani / Binding of Control serum LUMC to looped peptides of the protein M of SARS-CoV Urbani / Binding of Control Serum Blood-Bank to Looped peptides of the protein M of SARS-CoV Urbani: unit not given here
[2] = tested on: rabbit serum obtained by immunizing a rabbit with the SARS-CoV strain Frankfurt 1; assay type: binding; design: Binding of a rabbit serum to linear peptides / Binding of a rabbit serum to looped peptides / Rabbit serum linear peptides / Rabbit serum looped peptides / Binding of a rabbit serum to linear peptides of protein N of SARS-CoV Urbani (Rabbit serum linear peptides) / Binding of a rabbit serum to looped/cyclic peptides of protein N of SARS-CoV Urbani (Rabbit serum looped peptides): unit not given here

| Sequence | Binding of Control Serum Blood-Bank to Looped peptides [1] | Binding of Control serum Blood-bank to linear peptides [1] | Binding of Control serum LUMC to linear peptides [1] | Binding of Control serum LUMC to looped peptides [1] | Binding of a rabbit serum to linear peptides [2] | Binding of a rabbit serum to looped peptides [2] | Binding of Control Serum Blood-Bank to Looped peptides of the protein M of SARS-CoV Urbani [1] | Binding of Control serum Blood-bank to linear peptides of the protein M of SARS-CoV Urbani [1] | Binding of Control serum LUMC to linear peptides of the protein M of SARS-CoV Urbani [1] | Binding of Control serum LUMC to looped peptides of the protein M of SARS-CoV Urbani [1] | Rabbit serum linear peptides [2] | Rabbit serum looped peptides [2] | Binding of Control Serum Blood-Bank to Looped peptides of the protein X3 of SARS-CoV Urbani [1] | Binding of Control serum Blood-bank to linear peptides of the protein X3 of SARS-CoV Urbani [1] | Binding of Control serum LUMC to linear peptides of the protein X3 of SARS-CoV Urbani [1] | Binding of Control serum LUMC to looped peptides of the protein X3 of SARS-CoV Urbani [1] |
| --- | --- | --- | --- | --- | --- | --- | --- | --- | --- | --- | --- | --- | --- | --- | --- | --- |
| FTLGSITAQPVKIDN | 1.6 | 0.5 | 0.6 | 1.2 | 0.7 | 0.8 | – | – | – | – | – | – | – | – | – | – |
| FVCWHTHNYDYCIPY | 0.5 | 0.6 | 0.7 | 0.6 | 0.1 | 0.7 | – | – | – | – | – | – | – | – | – | – |
| GASQRVGTDSGFAAY | – | – | – | – | – | – | 0.7 | 0.9 | 0.9 | 0.7 | 0.1 | 0.1 | – | – | – | – |
| GGYSEDRHSGVKDYV | 0.4 | 0.6 | 0.4 | 0.5 | 0.1 | 0.2 | – | – | – | – | – | – | – | – | – | – |
| GHQTAAFRDVLVVLN | 0.6 | 0.5 | 0.8 | 0.6 | – | – | – | – | – | – | 0.1 | 0.5 | – | – | – | – |
| GIAIAMACIVGLMWL | – | – | – | – | – | – | 0.7 | 0.8 | 0.5 | 0.8 | 0.3 | 0.1 | – | – | – | – |
| GISTPKLKEDYQIGG | 0.4 | 0.5 | 0.4 | 0.4 | 0.1 | 0.3 | – | – | – | – | – | – | – | – | – | – |
| GNYKLNTDHAGSNDN | – | – | – | – | – | – | 0.6 | 0.6 | 0.7 | 0.7 | 0.0 | 0.2 | – | – | – | – |
| GSITAQPVKIDNASP | 0.6 | 0.6 | 0.6 | 0.5 | 0.2 | 0.4 | – | – | – | – | – | – | – | – | – | – |
| GSSGVANPAMDPIYD | 0.4 | 0.6 | 0.7 | 0.4 | 0.1 | 0.5 | – | – | – | – | – | – | – | – | – | – |
| GTQVLKTMSLYMAIS | 0.7 | 0.6 | 0.6 | 0.6 | 0.2 | 0.4 | – | – | – | – | – | – | – | – | – | – |
| GTTVLLKEPCPSGTY | 0.7 | 0.7 | 0.7 | 0.8 | – | – | – | – | – | – | 0.4 | 0.4 | – | – | – | – |
| GTYEGNSPFHPLADN | 0.9 | 0.7 | 0.8 | 0.7 | – | – | – | – | – | – | 0.6 | 0.5 | – | – | – | – |
| GVKDYVVVHGYFTEV | 1.1 | 0.5 | 0.7 | 1.3 | 0.1 | 0.7 | – | – | – | – | – | – | – | – | – | – |
| HNYDYCIPYNSVTDT | 0.7 | 0.3 | 0.4 | 0.6 | 0.1 | 0.5 | – | – | – | – | – | – | – | – | – | – |
| HPLADNKFALTCTST | 0.8 | 0.7 | 0.6 | 0.9 | – | – | – | – | – | – | 0.5 | 0.1 | – | – | – | – |
| HSGVKDYVVVHGYFT | 2.2 | 0.7 | 0.8 | 2.3 | 0.1 | 0.6 | – | – | – | – | – | – | – | – | – | – |
| HTMVQTCTPNVTINC | 0.8 | 0.9 | 0.7 | 0.6 | – | – | – | – | – | – | 0.4 | 0.2 | – | – | – | – |
| IGGYSEDRHSGVKDY | 0.7 | 0.4 | 0.5 | 0.6 | 0.1 | 0.6 | – | – | – | – | – | – | – | – | – | – |
| IGNYKLNTDHAGSND | – | – | – | – | – | – | 0.7 | 0.5 | 0.3 | 0.8 | 0.5 | 0.0 | – | – | – | – |
| IIMRTFRIAIWNLDV | – | – | – | – | – | – | – | – | – | – | 0.3 | 0.5 | 0.9 | 0.9 | 0.7 | 0.6 |
| IISSIVRQLFKPLTK | – | – | – | – | – | – | – | – | – | – | 0.6 | 0.4 | 0.6 | 0.8 | 0.8 | 0.6 |
| ILIIIMRTFRIAIWN | – | – | – | – | – | – | – | – | – | – | 0.5 | 0.6 | 0.7 | 0.8 | 0.5 | 0.3 |
| ISTPKLKEDYQIGGY | 0.7 | 0.7 | 1.0 | 0.5 | 0.1 | 0.4 | – | – | – | – | – | – | – | – | – | – |
| ITAQPVKIDNASPAS | 0.5 | 0.7 | 0.7 | 0.5 | 0.1 | 0.3 | – | – | – | – | – | – | – | – | – | – |
| IVNVSLVKPTVYVYS | 0.9 | 0.7 | 0.4 | 0.9 | 0.5 | 0.5 | – | – | – | – | – | – | – | – | – | – |
| KEDYQIGGYSEDRHS | 0.3 | 0.5 | 0.5 | 0.4 | 0.1 | 0.5 | – | – | – | – | – | – | – | – | – | – |
| KIDNASPASTVHATA | 0.6 | 0.6 | 0.7 | 0.7 | 0.2 | 0.3 | – | – | – | – | – | – | – | – | – | – |
| KKNYSELDDEEPMEL | – | – | – | – | – | – | – | – | – | – | 0.1 | 0.0 | 0.6 | 0.5 | 0.4 | 0.9 |
| KLGASQRVGTDSGFA | – | – | – | – | – | – | 0.8 | 0.9 | 0.9 | 0.9 | 0.1 | 0.1 | – | – | – | – |
